{"source": "paper doi:10.1101/2025.04.23.650324v1", "about": "(biorxiv, 2025)", "test_in_all_cases": "microbe, parasite or virus in culture", "key": {"[1]": {"system": "Acinetobacter baumannii #10", "conditions": "18 h, read-out: ENOblock MIC (mg/L)"}, "[2]": {"system": "Acinetobacter baumannii #11", "conditions": "18 h, read-out: ENOblock MIC (mg/L)"}, "[3]": {"system": "Acinetobacter baumannii #14", "conditions": "18 h, read-out: ENOblock MIC (mg/L)"}, "[4]": {"system": "Acinetobacter baumannii #16", "conditions": "18 h, read-out: ENOblock MIC (mg/L)"}, "[5]": {"system": "Acinetobacter baumannii #17", "conditions": "18 h, read-out: ENOblock MIC (mg/L)"}, "[6]": {"system": "Acinetobacter baumannii #19", "conditions": "18 h, read-out: ENOblock MIC (mg/L)"}, "[7]": {"system": "Acinetobacter baumannii #1", "conditions": "18 h, read-out: ENOblock MIC (mg/L)"}, "[8]": {"system": "Acinetobacter baumannii #20", "conditions": "18 h, read-out: ENOblock MIC (mg/L)"}, "[9]": {"system": "Acinetobacter baumannii #21", "conditions": "18 h, read-out: ENOblock MIC (mg/L)"}, "[10]": {"system": "Acinetobacter baumannii #22", "conditions": "18 h, read-out: ENOblock MIC (mg/L)"}, "[11]": {"system": "Escherichia coli CRA17", "conditions": "CRA17, 18 h, read-out: ENOblock MIC (mg/L)"}, "[12]": {"system": "Escherichia coli CRA20", "conditions": "CRA20, 18 h, read-out: ENOblock MIC (mg/L)"}, "[13]": {"system": "Escherichia coli CRA32", "conditions": "CRA32, 18 h, read-out: ENOblock MIC (mg/L)"}, "[14]": {"system": "Escherichia coli CRA57", "conditions": "CRA57, 18 h, read-out: ENOblock MIC (mg/L)"}, "[15]": {"system": "Escherichia coli CRA5", "conditions": "CRA5, 18 h, read-out: ENOblock MIC (mg/L)"}, "[16]": {"system": "Escherichia coli CRA7", "conditions": "CRA7, 18 h, read-out: ENOblock MIC (mg/L)"}, "[17]": {"system": "Escherichia coli CRA8", "conditions": "CRA8, 18 h, read-out: ENOblock MIC (mg/L)"}, "[18]": {"system": "Escherichia coli R2", "conditions": "R2, 18 h, read-out: ENOblock MIC (mg/L)"}, "[19]": {"system": "Escherichia coli R5", "conditions": "R5, 18 h, read-out: ENOblock MIC (mg/L)"}, "[20]": {"system": "Escherichia coli R6", "conditions": "R6, 18 h, read-out: ENOblock MIC (mg/L)"}, "[21]": {"system": "Klebsiella pneumoniae Kp10", "conditions": "KP10, 18 h, read-out: ENOblock MIC (mg/L)"}, "[22]": {"system": "Klebsiella pneumoniae Kp11", "conditions": "KP11, 18 h, read-out: ENOblock MIC (mg/L)"}, "[23]": {"system": "Klebsiella pneumoniae Kp12", "conditions": "KP12, 18 h, read-out: ENOblock MIC (mg/L)"}, "[24]": {"system": "Klebsiella pneumoniae Kp13", "conditions": "KP13, 18 h, read-out: ENOblock MIC (mg/L)"}, "[25]": {"system": "Klebsiella pneumoniae Kp14", "conditions": "KP14, 18 h, read-out: ENOblock MIC (mg/L)"}, "[26]": {"system": "Klebsiella pneumoniae Kp15", "conditions": "KP15, 18 h, read-out: ENOblock MIC (mg/L)"}, "[27]": {"system": "Klebsiella pneumoniae Kp6", "conditions": "KP6, 18 h, read-out: ENOblock MIC (mg/L)"}, "[28]": {"system": "Klebsiella pneumoniae Kp7", "conditions": "KP7, 18 h, read-out: ENOblock MIC (mg/L)"}, "[29]": {"system": "Klebsiella pneumoniae Kp8", "conditions": "KP8, 18 h, read-out: ENOblock MIC (mg/L)"}, "[30]": {"system": "Klebsiella pneumoniae Kp9", "conditions": "KP9, 18 h, read-out: ENOblock MIC (mg/L)"}}, "data": [{"smiles": "NCCOCCOCCNC(=O)Cc1ccc(Nc2nc(NCc3ccc(F)cc3)nc(NCC3CCCCC3)n2)cc1", "note": "[ENOblock]", "values": [{"measurement": "MIC", "setting": "[1]", "result": 16, "unit": "mg/L"}, {"measurement": "MIC", "setting": "[2]", "result": 16, "unit": "mg/L"}, {"measurement": "MIC", "setting": "[3]", "result": 16, "unit": "mg/L"}, {"measurement": "MIC", "setting": "[4]", "result": 16, "unit": "mg/L"}, {"measurement": "MIC", "setting": "[5]", "result": 16, "unit": "mg/L"}, {"measurement": "MIC", "setting": "[6]", "result": 32, "unit": "mg/L"}, {"measurement": "MIC", "setting": "[7]", "result": 16, "unit": "mg/L"}, {"measurement": "MIC", "setting": "[8]", "result": 8, "unit": "mg/L"}, {"measurement": "MIC", "setting": "[9]", "result": 8, "unit": "mg/L"}, {"measurement": "MIC", "setting": "[10]", "result": 16, "unit": "mg/L"}, {"measurement": "MIC", "setting": "[11]", "result": 32, "unit": "mg/L"}, {"measurement": "MIC", "setting": "[12]", "result": 32, "unit": "mg/L"}, {"measurement": "MIC", "setting": "[13]", "result": 8, "unit": "mg/L"}, {"measurement": "MIC", "setting": "[14]", "result": 16, "unit": "mg/L"}, {"measurement": "MIC", "setting": "[15]", "result": 16, "unit": "mg/L"}, {"measurement": "MIC", "setting": "[16]", "result": 16, "unit": "mg/L"}, {"measurement": "MIC", "setting": "[17]", "result": 16, "unit": "mg/L"}, {"measurement": "MIC", "setting": "[18]", "result": 32, "unit": "mg/L"}, {"measurement": "MIC", "setting": "[19]", "result": 32, "unit": "mg/L"}, {"measurement": "MIC", "setting": "[20]", "result": 16, "unit": "mg/L"}, {"measurement": "MIC", "setting": "[21]", "result": 32, "unit": "mg/L"}, {"measurement": "MIC", "setting": "[22]", "result": 16, "unit": "mg/L"}, {"measurement": "MIC", "setting": "[23]", "result": 64, "unit": "mg/L"}, {"measurement": "MIC", "setting": "[24]", "result": 64, "unit": "mg/L"}, {"measurement": "MIC", "setting": "[25]", "result": 64, "unit": "mg/L"}, {"measurement": "MIC", "setting": "[26]", "result": 64, "unit": "mg/L"}, {"measurement": "MIC", "setting": "[27]", "result": 32, "unit": "mg/L"}, {"measurement": "MIC", "setting": "[28]", "result": 16, "unit": "mg/L"}, {"measurement": "MIC", "setting": "[29]", "result": 64, "unit": "mg/L"}, {"measurement": "MIC", "setting": "[30]", "result": 64, "unit": "mg/L"}]}]}
